Source: PMC6864537, “Novel Thiazolidin-4-ones as Potential Non-Nucleoside Inhibitors of HIV-1 Reverse Transcriptase” (Molecules, 2019)

Target: T1, HIV-1 Reverse Transcriptase (Human immunodeficiency virus type 1 group M subtype B, UniProt P03366)
T1 construct: Lys101, Val179 (p66 subunit) and Glu138 (p51 subunit); purchased Roche
Assay: HIV-1 RT inhibitory action, colorimetric photometric immunoassay kit (Roche)
Type: biochemical
Conditions: for IC50: IC50 (μM), 45 min pre-incubation, 2 h at 37 °C
Method: For the evaluation of the HIV-1 Reverse Transcriptase activity, the colorimetric photometric immunoassay kit provided by Roche was used. A two hours incubation at 37 °C was performed, as previously described in our paper following a pre-incubation step in which reverse transcriptase was incubated in the presence of the potential inhibitor for 45 min at room temperature before the addition of the substrate. The total-activity was measured in the absence of inhibitors (compounds) with the addition of an equal volume of the solvent of the compounds to the reaction mixture. For the determination of enzyme activity, incubation in the absence of enzyme was used as blank. Different inhibitor concentrations were added for the calculation of IC50 values.

| Structure (SMILES) | inhibition at 4 µM | IC50 |
| --- | --- | --- |
| O=C1CSC(c2c(F)cccc2F)N1c1nc2cccc(Cl)c2s1 (stereo not shown) [Compound 1, 3-(7-Chloro-benzo[d]thiazol-2-yl)-2-(2,6-difluorophenyl)thiazolidin-4-one] | 70% | 0.21 µM |
| O=C1CSC(c2c(F)cccc2Cl)N1c1nc2cccc(Cl)c2s1 (stereo not shown) [Compound 2, 3-(7-Chloro-benzo[d]thiazol-2-yl)-2-(2-chloro-6-fluorophenyl)thiazolidin-4-one] | 72% | 0.0047 µM |
| O=C1CSC(c2ccc(F)cc2)N1c1nc2ccc(F)cc2s1 (stereo not shown) [Compound 3, 3-(6-Fluoro-benzo[d]thiazol-2-yl)-2-(4-fluorophenyl)thiazolidin-4-one] | 72% | 0.15 µM |
| O=C1CSC(c2ccc([N+](=O)[O-])cc2)N1c1nc2ccc(F)cc2s1 (stereo not shown) [Compound 4, 3-(6-Fluoro-benzo[d]thiazol-2-yl)-2-(4-nitrophenyl)thiazolidin-4-one] | 54% | 3.8 µM |
| O=C1CSC(c2ccc(Cl)cc2)N1c1nc2ccc(F)cc2s1 (stereo not shown) [Compound 5, 3-(6-Fluoro-benzo[d]thiazol-2-yl)-2-(4-chlorophenyl)thiazolidin-4-one] | 44% | > 4 µM |
| COc1ccc(C2SCC(=O)N2c2nc3ccc(F)cc3s2)cc1 (stereo not shown) [Compound 6, 3-(6-Fluoro-benzo[d]thiazol-2-yl)-2-(4-methoxyphenyl)thiazolidin-4-one] | 35% | > 4 µM |
| O=C1CSC(c2ccc(O)cc2)N1c1nc2ccc(F)cc2s1 (stereo not shown) [Compound 7, 3-(6-Fluoro-benzo[d]thiazol-2-yl)-2-(4-hydroxyphenyl)thiazolidin-4-one] | 50% | 4 µM |
| O=C1CSC(c2ccc(F)cc2)N1c1nc2ccc(Cl)cc2s1 (stereo not shown) [Compound 8, 3-(6-Chloro-benzo[d]thiazol-2-yl)-2-(4-fluorophenyl)thiazolidin-4-one] | 83% | 0.26 µM |
| O=C1CSC(c2ccc(O)cc2)N1c1nc2ccc(Cl)cc2s1 (stereo not shown) [Compound 9, 3-(6-Chloro-benzo[d]thiazol-2-yl)-2-(4-hydroxyphenyl)thiazolidin-4-one] | 56% | 0.001 µM |
| O=C1CSC(c2ccc(F)cc2)N1c1nc2c(Cl)cccc2s1 (stereo not shown) [Compound 10, 3-(4-Chloro-benzo[d]thiazol-2-yl)-2-(4-fluorophenyl)thiazolidin-4-one] | 63% | 0.001 µM |
| O=C1CSC(c2ccc([N+](=O)[O-])cc2)N1c1nc2c(Cl)cccc2s1 (stereo not shown) [Compound 11, 3-(4-Chloro-benzo[d]thiazol-2-yl)-2-(4-nitrophenyl)thiazolidin-4-one] | 40% | > 4 µM |
| O=C1CSC(c2ccc(Cl)cc2)N1c1nc2c(Cl)cccc2s1 (stereo not shown) [Compound 12, 3-(4-Chloro-benzo[d]thiazol-2-yl)-2-(4-chlorophenyl)thiazolidin-4-one] | 50% | 4 µM |
| COc1ccc(C2SCC(=O)N2c2nc3c(Cl)cccc3s2)cc1 (stereo not shown) [Compound 13, 3-(4-Chloro-benzo[d]thiazol-2-yl)-2-(4-methoxyphenyl)thiazolidin-4-one] | 65% | 1.99 µM |
| O=C1CSC(c2ccc(O)cc2)N1c1nc2c(Cl)cccc2s1 (stereo not shown) [Compound 14, 3-(4-Chloro-benzo[d]thiazol-2-yl)-2-(4-hydroxyphenyl)thiazolidin-4-one] | 83% | 0.01 µM |
| COc1cccc2sc(N3C(=O)CSC3c3ccc(F)cc3)nc12 (stereo not shown) [Compound 15, 3-(4-Methoxy-benzo[d]thiazol-2-yl)-2-(4-flurophenyl)thiazolidin-4-one] | 69% | 2.08 µM |
| COc1cccc2sc(N3C(=O)CSC3c3ccc([N+](=O)[O-])cc3)nc12 (stereo not shown) [Compound 16, 3-(4-Methoxy-benzo[d]thiazol-2-yl)-2-(4-nitrophenyl)thiazolidin-4-one] | 68% | 2.2 µM |

| Structure (SMILES) | inhibition at 4 µM | IC50 |
| --- | --- | --- |
| COc1cccc2sc(N3C(=O)CSC3c3ccc(Cl)cc3)nc12 (stereo not shown) [Compound 17, 3-(4-Methoxy-benzo[d]thiazol-2-yl)-2-(4-chlorophenyl)thiazolidin-4-one] | 67% | 2.6 µM |
| COc1ccc(C2SCC(=O)N2c2nc3c(OC)cccc3s2)cc1 (stereo not shown) [Compound 18, 3-(4-Methoxy-benzo[d]thiazol-2-yl)-2-(4-methoxyphenyl)thiazolidin-4-one] | 72% | 2.69 µM |
| COc1cccc2sc(N3C(=O)CSC3c3ccc(O)cc3)nc12 (stereo not shown) [Compound 19, 3-(4-Methoxy-benzo[d]thiazol-2-yl)-2-(4-hydroxyphenyl)thiazolidin-4-one] | 71% | 2.62 µM |
| COc1ccc2nc(N3C(=O)CSC3c3ccc(F)cc3)sc2c1 (stereo not shown) [Compound 20, 3-(6-Methoxy-benzo[d]thiazol-2-yl)-2-(4-fluorophenyl)thiazolidin-4-one] | 55% | 1.51 µM |
| COc1ccc2nc(N3C(=O)CSC3c3ccc([N+](=O)[O-])cc3)sc2c1 (stereo not shown) [Compound 21, 3-(6-Methoxy-benzo[d]thiazol-2-yl)-2-(4-nitrophenyl)thiazolidin-4-one] | 50% | 4 µM |
| COc1ccc2nc(N3C(=O)CSC3c3ccc(Cl)cc3)sc2c1 (stereo not shown) [Compound 22, 3-(6-Methoxy-benzo[d]thiazol-2-yl)-2-(4-chlorophenyl)thiazolidin-4-one] | 72% | 2.76 µM |
| COc1ccc(C2SCC(=O)N2c2nc3ccc(OC)cc3s2)cc1 (stereo not shown) [Compound 23, 3-(6-Methoxy-benzo[d]thiazol-2-yl)-2-(4-methoxyphenyl)thiazolidin-4-one] | 73% | 2.39 µM |
| CCOc1ccc2nc(N3C(=O)CSC3c3ccc(F)cc3)sc2c1 (stereo not shown) [Compound 24, 3-(6-Ethoxy-benzo[d]thiazol-2-yl)-2-(4-fluorophenyl)thiazolidin-4-one] | 36% | > 4 µM |
| CCOc1ccc2nc(N3C(=O)CSC3c3ccc([N+](=O)[O-])cc3)sc2c1 (stereo not shown) [Compound 25, 3-(6-Ethoxy-benzo[d]thiazol-2-yl)-2-(4-nitrophenyl)thiazolidin-4-one] | 44% | > 4 µM |
| CCOc1ccc2nc(N3C(=O)CSC3c3ccc(Cl)cc3)sc2c1 (stereo not shown) [Compound 26, 3-(6-Ethoxy-benzo[d]thiazol-2-yl)-2-(4-chlorophenyl)thiazolidin-4-one] | 73% | 2.48 µM |
| CCOc1ccc2nc(N3C(=O)CSC3c3ccc(OC)cc3)sc2c1 (stereo not shown) [Compound 27, 3-(6-Ethoxy-benzo[d]thiazol-2-yl)-2-(4-methoxyphenyl)thiazolidin-4-one] | 76% | 1.93 µM |
| CCOc1ccc2nc(N3C(=O)CSC3c3ccc(O)cc3)sc2c1 (stereo not shown) [Compound 28, 3-(6-Ethoxy-benzo[d]thiazol-2-yl)-2-(4-hydroxyphenyl)thiazolidin-4-one] | 62% | 2 µM |
| O=C1CSC(c2c(Cl)cccc2Cl)N1c1nc2ccc(OC(F)(F)F)cc2s1 (stereo not shown) [Compound 29, 3-(6-Trifluoromethoxy-benzo[d]thiazol-2-yl)-2-(2,6-dichlorophenyl) thiazolidin-4-one] | 49% | 4.28 µM |
| O=C1CSC(c2cccc(Cl)c2Cl)N1c1nc2ccc(OC(F)(F)F)cc2s1 (stereo not shown) [Compound 30, 3-(6-Trifluoromethoxy-benzo[d]thiazol-2-yl)-2-(2,3-dichlorophenyl) thiazolidin-4-one] | 46% | > 4 µM |
| O=C1CSC(c2ccc([N+](=O)[O-])cc2)N1c1nc2ccc(OC(F)(F)F)cc2s1 (stereo not shown) [Compound 31, 3-(6-Trifluoromethoxy-benzo[d]thiazol-2-yl)-2-(4-nitrophenyl)thiazolidin-4-one] | 46% | > 4 µM |
| O=C1CSC(c2ccc(Cl)cc2)N1c1nc2ccc(OC(F)(F)F)cc2s1 (stereo not shown) [Compound 32, 3-(6-Trifluoromethoxy-benzo[d]thiazol-2-yl)-2-(4-chlorophenyl)thiazolidin-4-one] | 46% | > 4 µM |
